According to ChEMBL document CHEMBL4699592, “Nature-Inspired (di)Azine-Bridged Bisindole Alkaloids with Potent Antibacterial In Vitro and In Vivo Efficacy against Methicillin-Resistant Staphylococcus aureus” (J Med Chem, 2020):
Active and inactive are the calls of the source. The rule behind the calls is not given here.

Key:
Cell membrane [1] = test: Induction of cell membrane permeabilization in GFP-expressing Staphylococcus aureus ATCC 700699 assessed as increase in cellular ATP leakage at 5 fold MIC measured after 0.5 hrs by Bactiter-glo assay; format: subcellular
Pseudomonas aeruginosa = test: Synergistic antibacterial activity against Pseudomonas aeruginosa ATCC 27853 assessed as FICI after 24 hrs in presence of colistin by checkerboard assay; format: functional
Staphylococcus aureus = test: Antibacterial activity against methicillin susceptible Staphylococcus aureus ATCC 25923 at 0.78 to 100 uM after 24 hrs by broth microdilution method; format: functional, organism-based; details: dose microM 0.78-100, time 24.0 hrs
Acinetobacter baumannii [2] = test: Synergistic antibacterial activity against Acinetobacter baumannii ATCC BAA-1605 assessed as FICI after 24 hrs in presence of colistin by checkerboard assay; format: functional
HEK293 = test: Cytotoxicity against HEK293 cells assessed as reduction in cell viability at >12.5 uM measured after 48 hrs by resazurin dye based fluorescence assay; details: human, hek293, 48 h
Cell membrane [3] = test: Induction of cell membrane permeabilization in GFP-expressing Staphylococcus aureus ATCC 700699 assessed as increase in GFP efflux at 5 fold MIC measured after 6 hrs by fluorescence assay
Acinetobacter baumannii [4] = test: Antibacterial activity against Acinetobacter baumannii ATCC BAA-1605 after 24 hrs by broth microdilution method; format: functional
Enterococcus faecium = test: Antibacterial activity against vancomycin-resistant Enterococcus faecium ATCC 700221 at 0.78 to 100 uM after 24 hrs by broth microdilution method; format: functional, organism-based; details: dose microM 0.78-100, time 24.0 hrs
[5] = Cytotoxicity against human CLS-54 cells assessed as reduction in cell viability at >12.5 uM measured after 48 hrs by resazurin dye based fluorescence assay; details: cls-54, 48 h
Escherichia coli = test: Synergistic antimicrobial activity against Escherichia coli ATCC BAA 2469 assessed as FICI after 24 hrs in presence of colistin by checkerboard assay; format: functional
MRC5 = test: Cytotoxicity against human MRC5 cells assessed as reduction in cell viability at >=12.5 uM measured after 48 hrs by resazurin dye based fluorescence assay; details: mrc5, 48 h

SMILES: Clc1ccc2[nH]cc(-c3cccc(-c4c[nH]c5ccc(Cl)cc45)n3)c2c1
- Activity (Cell membrane [1]): Active
- fractional inhibitory concentration index (FICI) (Pseudomonas aeruginosa): <=0.5625
- Activity (Staphylococcus aureus): Active
- fractional inhibitory concentration index (FICI) (Acinetobacter baumannii [2]): <=0.3125
- Activity (HEK293): Toxic
- Activity (Cell membrane [3]): Active
- MIC (Acinetobacter baumannii [4]): > 100 µM
- Activity (Enterococcus faecium): Active
- Activity [5]: Toxic
- fractional inhibitory concentration index (FICI) (Escherichia coli): <=0.0953
- Activity (MRC5): Toxic
